Results as given in ChEMBL document CHEMBL1144740, “Structural characterization and DPPH radical scavenging activity of an arabinoglucogalactan from Panax notoginseng root” (J Nat Prod, 2008).

Assay: DPPH radical scavenging activity
Format: ADME

SC50 [µg/mL] | SMILES
11.72 | OC[C@@H](O)[C@@H]1O[C@H]2O[C@@H]3[C@@H](O)[C@H](O[C@@H]4[C@@H](O)[C@H](O[C@@H]5[C@@H](O)[C@H](O[C@@H]6[C@@H](O)[C@H](O[C@@H]7[C@@H](O)[C@H](O[C@@H]8[C@@H](O)[C@H](O[C@@H]9[C@@H](O)[C@H](O[C@@H]1[C@H]2O)O[C@H]9[C@H](O)CO)O[C@H]8[C@H](O)CO)O[C@H]7[C@H](O)CO)O[C@H]6[C@H](O)CO[C@@H]1O[C@H](CO)[C@@H](O[C@@H]2O[C@H](CO)[C@@H](O)[C@@H]2O)[C@H](O)[C@H]1O)O[C@H]5[C@H](O)CO)O[C@H]4[C@H](O)CO)O[C@H]3[C@H](O)CO
5.24 | O=C1O[C@H]([C@@H](O)CO)C(O)=C1O [ASCORBIC ACID]
